How the values were obtained:
A375 cells = experiment: Inhibition of cancer cell growth, MTT assay, A375; assay type: cell-based; settings: Homo sapiens, A-375, 72 h exposure
Experimental: (§1) Inhibition of cell growth by compounds was measured using MTT assay (Mosmann, T., Journal of Immunological Methods, 1983, 65, 55-63). Tumor cell lines were purchased from ATCC (American Type Culture Collection, Manassas, Va.). All cell lines were maintained in RPMI 1640 (Hyclone) supplemented with 10% fetal bovine serum (FBS, Hyclone), glutamine (2 mM, Hyclone), and antibiotics (penicillin 100 U/mL and streptomycin 50 μg/mL) at 37° C. in a humidified atmosphere of 5% CO2 in air. Taxol (as a positive control, Sigma) and compounds were dissolved in DMSO (Sigma), and the final concentration of DMSO in the medium was 1%. Tumor cells were plated in 96-well plates at densities of about 4000 cells/well of a 96-well plate and allowed to adhere/grow for 24 h. They were then treated with various concentrations of drug for 72 h. 3-(4,5-Dimethylthiazol-2-yl)-2,5-diphenyltetrazolium bromide (MTT, Sigma) was used to determine the number of viable cells at the time of compound addition and the number of cells remaining after 72 h compound exposure. The number of cells remaining after 72 h was compared to the number of viable cells at the time of compound addition by measuring the absorbance at 570 nm, allowing for the calculation of growth inhibition.
(§2) All concentrations of compounds were tested in triplicate and controls were averaged over 4 wells. IC50 was calculated by plotting the concentration of compound vs the percentage of inhibition in treated wells using GraphPad Prism 5. […] The scale utilized in Table 6 is as follows: +++ less than 1000 nM; ++ between 1000 nM and 5000 nM; and + greater than 5000 nM. The scale utilized in Table 7 is as follows: +++ less than 2000 nM; ++ between 2000 nM and 5000 nM; and + greater than 5000 nM.

A549 cells = experiment: Inhibition of cancer cell growth, MTT assay, A549; assay type: cell-based; settings: Homo sapiens, A549, 72 h exposure
Experimental: as §1, §2

BRAF V600E = BRAF V600E (Homo sapiens (Human), UniProt P15056, V600E); experiment: Z′-LYTE kinase inhibition assay (Invitrogen), BRAF V600E; assay type: biochemical; settings: 1 μM compound, Z′-LYTE method; read-out: % inhibition at 1 μM against BRAF V600E
BRAF V600E, sequence (P15056 whole entry V600E): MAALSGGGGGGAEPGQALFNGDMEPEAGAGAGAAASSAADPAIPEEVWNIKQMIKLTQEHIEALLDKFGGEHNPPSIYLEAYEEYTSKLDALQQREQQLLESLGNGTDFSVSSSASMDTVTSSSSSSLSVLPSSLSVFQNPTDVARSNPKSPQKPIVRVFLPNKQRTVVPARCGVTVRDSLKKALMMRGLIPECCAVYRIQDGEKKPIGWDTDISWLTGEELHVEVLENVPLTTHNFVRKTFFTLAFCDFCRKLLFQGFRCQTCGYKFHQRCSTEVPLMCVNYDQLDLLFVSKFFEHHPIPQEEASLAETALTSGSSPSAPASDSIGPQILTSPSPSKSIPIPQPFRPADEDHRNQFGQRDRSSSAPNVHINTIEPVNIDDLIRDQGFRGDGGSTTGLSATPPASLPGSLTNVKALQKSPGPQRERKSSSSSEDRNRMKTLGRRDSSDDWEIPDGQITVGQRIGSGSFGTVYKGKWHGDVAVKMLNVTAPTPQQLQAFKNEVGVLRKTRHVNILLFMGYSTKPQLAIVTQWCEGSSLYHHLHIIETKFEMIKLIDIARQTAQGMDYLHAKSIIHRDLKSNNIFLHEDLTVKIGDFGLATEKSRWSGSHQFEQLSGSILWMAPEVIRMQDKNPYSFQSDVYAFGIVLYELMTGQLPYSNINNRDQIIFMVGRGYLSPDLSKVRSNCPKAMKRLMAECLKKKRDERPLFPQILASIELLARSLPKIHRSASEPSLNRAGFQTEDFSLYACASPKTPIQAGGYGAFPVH
Experimental: (§3) Inhibitory activities Inhibitory activities of compounds against BRAF, and BRAF V600E were measured by Invitrogen using Z′-LYTE® Method as briefly described in the following. 4× Test compounds are dissolved in 1% DMSO. […] ATP solutions are diluted to a 4×ATP working concentration in Kinase Buffer (50 mM HEPES pH 7.5, 0.01% BRIJ-35, 10 mM MgCl2, 1 mM EGTA). Reaction started by 30-second shaking of mixture consisting of 2.5 μL 4× test compound, […] and 2.5 μL 4×ATP Solution on Bar-coded Corning, low volume NBS, black 384-well plate (Corning Cat. #3676). Then the mixture was incubated for 60-minute at room temperature for the kinase reaction, followed by addition of 5 μL of a 1:1024 dilution of development reagent A and 30-second plate shake. The mixture was then incubated for another 60-minute at room temperature for development reaction. Fluorescence was read by plate reader. IC50 was calculated by plotting the concentration of compound vs the percentage of inhibition in treated wells using GraphPad Prism 5.
The scale utilized in Table 3 is as follows: +++ less than 100 nM; and ++ greater than 100 nM.

KDR (VEGFR2) = KDR (VEGFR2) (Homo sapiens (Human), UniProt P35968); experiment: Z′-LYTE kinase inhibition assay (Invitrogen), KDR; assay type: biochemical; settings: Z′-LYTE method; for inhibition at 1 µM: 1 μM compound, read-out: % inhibition at 1 μM against KDR; for IC50: read-out: IC50 against KDR
KDR (VEGFR2), sequence (P35968 20-1356): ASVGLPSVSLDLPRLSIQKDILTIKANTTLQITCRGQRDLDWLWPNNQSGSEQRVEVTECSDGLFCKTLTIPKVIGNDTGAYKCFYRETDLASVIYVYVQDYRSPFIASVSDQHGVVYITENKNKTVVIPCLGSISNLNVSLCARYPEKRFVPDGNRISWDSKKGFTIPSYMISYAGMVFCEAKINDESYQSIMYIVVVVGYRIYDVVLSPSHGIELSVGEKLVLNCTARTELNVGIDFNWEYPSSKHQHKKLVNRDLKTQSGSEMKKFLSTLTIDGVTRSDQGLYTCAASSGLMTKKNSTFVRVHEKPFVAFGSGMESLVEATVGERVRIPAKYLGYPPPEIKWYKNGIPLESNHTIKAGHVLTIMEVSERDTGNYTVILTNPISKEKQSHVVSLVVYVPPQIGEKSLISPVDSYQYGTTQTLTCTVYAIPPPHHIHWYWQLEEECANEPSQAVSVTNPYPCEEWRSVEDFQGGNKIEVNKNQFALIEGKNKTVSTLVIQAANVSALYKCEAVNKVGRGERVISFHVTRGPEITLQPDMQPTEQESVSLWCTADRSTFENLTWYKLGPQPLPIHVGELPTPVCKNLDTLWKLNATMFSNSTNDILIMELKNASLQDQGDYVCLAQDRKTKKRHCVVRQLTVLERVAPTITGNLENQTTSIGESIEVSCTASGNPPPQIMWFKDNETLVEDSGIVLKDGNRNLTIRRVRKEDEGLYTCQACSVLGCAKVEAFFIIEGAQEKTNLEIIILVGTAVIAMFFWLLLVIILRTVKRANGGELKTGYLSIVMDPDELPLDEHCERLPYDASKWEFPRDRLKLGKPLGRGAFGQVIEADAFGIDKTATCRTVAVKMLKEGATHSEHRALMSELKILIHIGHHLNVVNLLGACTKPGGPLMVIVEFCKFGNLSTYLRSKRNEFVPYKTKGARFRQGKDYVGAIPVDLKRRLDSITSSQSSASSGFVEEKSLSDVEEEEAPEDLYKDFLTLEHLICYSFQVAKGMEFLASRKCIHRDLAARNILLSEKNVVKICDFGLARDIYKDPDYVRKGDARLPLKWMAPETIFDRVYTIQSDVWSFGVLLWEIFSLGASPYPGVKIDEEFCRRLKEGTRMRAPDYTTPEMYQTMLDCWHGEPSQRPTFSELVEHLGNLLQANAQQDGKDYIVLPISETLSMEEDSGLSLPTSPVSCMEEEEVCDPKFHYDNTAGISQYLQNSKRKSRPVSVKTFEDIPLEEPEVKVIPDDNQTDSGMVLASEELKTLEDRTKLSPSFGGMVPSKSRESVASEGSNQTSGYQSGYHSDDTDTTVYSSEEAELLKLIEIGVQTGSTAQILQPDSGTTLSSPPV
Experimental: as §3
Inhibitory activities of compounds against KDR (VEGFR2) were also measured by Invitrogen using Z′-LYTE® Method as described above with the following modification. The 2× KDR (VEGFR2)/Tyr 01 mixture is prepared in 50 mM HEPES pH 7.5, 0.01% BRIJ-35, 10 mM MgCl2, 1 mM EGTA. The final 10 μL Kinase Reaction consists of 0.5-11.7 ng KDR (VEGFR2) and 2 μM Tyr 01 in 50 mM HEPES pH 7.5, 0.01% BRIJ-35, 10 mM MgCl2, 1 mM EGTA. After the 1 hour Kinase Reaction incubation, 5 μL of a 1:256 dilution of Development Reagent B is added.
The scale utilized in Table 5 is as follows: +++ less than 100 nM; and ++ greater than 100 nM

SMILES	IC50 (A375 cells)	IC50 (A549 cells)	inhibition at 1 µM (BRAF V600E)	inhibition at 1 µM (KDR (VEGFR2))	IC50 (KDR (VEGFR2))
O=C(Nc1cc(F)cc(F)c1)Nc1cc(F)cc(C(=O)c2ccc3ncc(N4CCOCC4)nc3c2)c1 [Compound C093]		2 to 5 µM	> 89%	< 70%	
O=C(Nc1cc(F)cc(F)c1)Nc1ccc(F)c(C(=O)c2ccc3ncc(N4CCNCC4)nc3c2)c1 [Compound C101, 1-(3,5-difluorophenyl)-3-(4-fluoro-3-(3-(piperazin-1-yl)quinoxaline-6-carbonyl)phenyl)urea]		2 to 5 µM	> 89%	70 to 89%	
O=C(Nc1cc(F)cc(F)c1)Nc1ccc(F)c(C(=O)c2ccc3ncc(N4CCOCC4)nc3c2)c1 [Compound C094, 1-(3,5-difluorophenyl)-3-(4-fluoro-3-(3-morphlinoquinoxaline-6-carbonyl)phenyl)urea]		> 5 µM	> 89%	< 70%	
O=C(Nc1ccc(F)cc1)Nc1cc(F)c(F)c(C(=O)c2ccc3ncc(N4CCOCC4)nc3c2)c1 [Compound C095, 1-(3,4-difluoro-5-(3-morpholinoquinoxaline-6-carbonyl)phenyl)-3-(4-fluorophenyl)urea]		> 5 µM	> 89%	70 to 89%	
O=C(Nc1ccc(F)c(F)c1)Nc1cc(F)c(F)c(C(=O)c2ccc3ncc(N4CCOCC4)nc3c2)c1 [Compound C096]		> 5 µM	> 89%	< 70%	
O=C(Nc1ccc(F)c(C(=O)c2ccc3nccnc3c2)c1F)c1cccc(C(F)(F)F)c1 [Compound C114, N-(2,4-difluoro-3-(quinoxaline-6-carbonyl)phenyl)-3-(trifluoromethyl)benzamide]		> 5 µM	70 to 89%	70 to 89%	
O=C(Nc1cc(F)cc(F)c1)Nc1cc(F)c(F)c(C(=O)c2ccc3ncc(N4CCNCC4)nc3c2)c1 [Compound C104, 1-(3,4-difluoro-5-(3-(piperazin-1-yl)quinoxaline-6-carbonyl)phenyl)-3-(3,5-difluorophenyl)urea]		> 5 µM			
O=C(Nc1ccc(F)c(F)c1)Nc1cc(F)c(F)c(C(=O)c2ccc3ncc(N4CCNCC4)nc3c2)c1 [Compound C103, 1-(3,4-difluoro-5-(3-(piperazin-1-yl)quinoxaline-6-carbonyl)phenyl)-3-(3,4-difluorophenyl)urea]		2 to 5 µM			

Continued, values first:

IC50 (A375 cells)	IC50 (A549 cells)	inhibition at 1 µM (BRAF V600E)	inhibition at 1 µM (KDR (VEGFR2))	IC50 (KDR (VEGFR2))	SMILES
1000 to 5000 nM	2 to 5 µM	> 89%	< 70%		O=C(Nc1ccc(C(F)(F)F)cc1)Nc1cc(F)cc(C(=O)c2ccc3nccnc3c2)c1 [Compound C066, 1-(3-fluoro-5-(quinoxaline-6-carbonyl)phenyl)-3-(4-(trifluoromethyl)phenyl)urea]
	2 to 5 µM	> 89%	< 70%		O=C(Nc1cc(F)cc(F)c1)Nc1cc(F)c(F)c(C(=O)c2ccc3ncc(N4CCOCC4)nc3c2)c1 [Compound C097]
	2 to 5 µM	> 89%	> 89%	< 100 nM	O=C(Nc1ccc(F)c(F)c1)Nc1ccc(F)c(C(=O)c2ccc3ncc(N4CCNCC4)nc3c2)c1 [Compound C102, 1-(3,4-difluorophenyl)-3-(4-fluoro-3-(3-(piperazin-1-yl)quinoxaline-6-carbonyl)phenyl)urea]
	2 to 5 µM	> 89%	70 to 89%		O=C(Nc1cccc(F)c1)Nc1cc(F)c(F)c(C(=O)c2ccc3ncc(N4CCNCC4)nc3c2)c1 [Compound C098]
	< 2 µM	> 89%	70 to 89%	> 100 nM	O=C(Nc1ccc(F)cc1)Nc1cc(F)c(F)c(C(=O)c2ccc3ncc(N4CCNCC4)nc3c2)c1 [Compound C099, 1-(3,4-difluoro-5-(3-(piperazin-1-yl)quinoxaline-6-carbonyl)phenyl)-3-(4-fluorophenyl)urea]
